Laboratory results from PubChem BioAssay (NCI).
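Results reflect a 48-hour exposure of cells in 96-well plates to compound at five concentrations. At the TGI there is no net growth.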

How the values were obtained:
Assay in all cases: NCI anticancer screen, dose series, 48 h
K-562 leukemia = tested on: K-562 leukemia
SK-MEL-28 melanoma = tested on: SK-MEL-28 melanoma
OVCAR-4 ovarian = tested on: OVCAR-4 ovarian
NCI-H460 lung = tested on: NCI-H460 lung
NCI-H23 lung = tested on: NCI-H23 lung
A549 NSCLC = tested on: A549 NSCLC
SK-MEL-2 melanoma = tested on: SK-MEL-2 melanoma
SF-539 CNS = tested on: SF-539 CNS
DLD-1 colon = tested on: DLD-1 colon
M19-MEL melanoma = tested on: M19-MEL melanoma
U251 CNS = tested on: U251 CNS
RPMI-8226 leukemia = tested on: RPMI-8226 leukemia
CCRF-CEM leukemia = tested on: CCRF-CEM leukemia
COLO 205 colon = tested on: COLO 205 colon
HT29 colon = tested on: HT29 colon
SNB-78 CNS = tested on: SNB-78 CNS
SF-295 CNS = tested on: SF-295 CNS
DMS 273 small cell lung = tested on: DMS 273 small cell lung
DMS 114 small cell lung = tested on: DMS 114 small cell lung
KM12 colon = tested on: KM12 colon
TK-10 renal = tested on: TK-10 renal
XF 498 CNS = tested on: XF 498 CNS
SK-OV-3 ovarian = tested on: SK-OV-3 ovarian
CAKI-1 renal = tested on: CAKI-1 renal
EKVX NSCLC = tested on: EKVX NSCLC
NCI-H522 lung = tested on: NCI-H522 lung
OVCAR-3 ovarian = tested on: OVCAR-3 ovarian
HL-60(TB) leukemia = tested on: HL-60(TB) leukemia
SF-268 CNS = tested on: SF-268 CNS
HCC-2998 colon = tested on: HCC-2998 colon
HCT-15 colon = tested on: HCT-15 colon
IGROV1 ovarian = tested on: IGROV1 ovarian
SNB-75 CNS = tested on: SNB-75 CNS
786-0 renal = tested on: 786-0 renal
MALME-3M melanoma = tested on: MALME-3M melanoma
M14 melanoma = tested on: M14 melanoma
SN12C renal = tested on: SN12C renal
UACC-257 melanoma = tested on: UACC-257 melanoma
OVCAR-8 ovarian = tested on: OVCAR-8 ovarian
LXFL 529 NSCLC = tested on: LXFL 529 NSCLC
OVCAR-5 ovarian = tested on: OVCAR-5 ovarian
HCT-116 colon = tested on: HCT-116 colon
UO-31 renal = tested on: UO-31 renal
ACHN renal = tested on: ACHN renal
SK-MEL-5 melanoma = tested on: SK-MEL-5 melanoma
MOLT-4 leukemia = tested on: MOLT-4 leukemia
NCI-H226 lung = tested on: NCI-H226 lung
RXF-631 renal = tested on: RXF-631 renal
UACC-62 melanoma = tested on: UACC-62 melanoma
A498 renal = tested on: A498 renal
HOP-62 NSCLC = tested on: HOP-62 NSCLC
KM20L2 colon = tested on: KM20L2 colon
HOP-18 NSCLC = tested on: HOP-18 NSCLC
LOX IMVI melanoma = tested on: LOX IMVI melanoma
SW-620 colon = tested on: SW-620 colon
HOP-92 NSCLC = tested on: HOP-92 NSCLC
SNB-19 CNS = tested on: SNB-19 CNS
SR leukemia = tested on: SR leukemia
RXF 393 renal = tested on: RXF 393 renal

Measured: TGI

CCCN(CCC)c1c([N+](=O)[O-])cc(C(=O)N(C)C)cc1[N+](=O)[O-]
> 100 µM: K-562 leukemia | SK-MEL-28 melanoma | NCI-H460 lung | NCI-H23 lung | A549 NSCLC | SK-MEL-2 melanoma | SF-539 CNS | DLD-1 colon | M19-MEL melanoma | U251 CNS | RPMI-8226 leukemia | CCRF-CEM leukemia | COLO 205 colon | HT29 colon | SNB-78 CNS | SF-295 CNS | DMS 273 small cell lung | DMS 114 small cell lung | KM12 colon | TK-10 renal | XF 498 CNS | SK-OV-3 ovarian | CAKI-1 renal | EKVX NSCLC | NCI-H522 lung | OVCAR-3 ovarian | SF-268 CNS | HCC-2998 colon | HCT-15 colon | IGROV1 ovarian | 786-0 renal | MALME-3M melanoma | M14 melanoma | SN12C renal | UACC-257 melanoma | OVCAR-8 ovarian | LXFL 529 NSCLC | OVCAR-5 ovarian | HCT-116 colon | UO-31 renal | MOLT-4 leukemia
86.8 µM: HL-60(TB) leukemia
29.4 µM: OVCAR-4 ovarian
31.5 µM: SNB-75 CNS
30.7 µM: ACHN renal
28.9 µM: SK-MEL-5 melanoma

O=C(/C=C/c1ccc(Cl)cc1)c1ccncc1
67.3 µM: HL-60(TB) leukemia
86.6 µM: KM12 colon
68.7 µM: M19-MEL melanoma
88.7 µM: A498 renal
83.6 µM: SNB-75 CNS
> 100 µM: K-562 leukemia | SK-MEL-28 melanoma | OVCAR-4 ovarian | NCI-H226 lung | NCI-H460 lung | RXF-631 renal | NCI-H23 lung | A549 NSCLC | UACC-62 melanoma | SK-MEL-2 melanoma | SF-539 CNS | DLD-1 colon | U251 CNS | RPMI-8226 leukemia | CCRF-CEM leukemia | COLO 205 colon | SNB-78 CNS | SF-295 CNS | DMS 273 small cell lung | HOP-62 NSCLC | DMS 114 small cell lung | TK-10 renal | SK-OV-3 ovarian | CAKI-1 renal | EKVX NSCLC | KM20L2 colon | NCI-H522 lung | HOP-18 NSCLC | OVCAR-3 ovarian | SF-268 CNS | HCC-2998 colon | HCT-15 colon | IGROV1 ovarian | 786-0 renal | MALME-3M melanoma | M14 melanoma | SW-620 colon | SN12C renal | UACC-257 melanoma | OVCAR-8 ovarian | HOP-92 NSCLC | LXFL 529 NSCLC | OVCAR-5 ovarian | HCT-116 colon | UO-31 renal | SNB-19 CNS | SR leukemia | ACHN renal | SK-MEL-5 melanoma
44.4 µM: HT29 colon
60.3 µM: MOLT-4 leukemia
88.8 µM: RXF 393 renal
73.6 µM: LOX IMVI melanoma

O=c1c2cccnc2ncn1CCCN1CCOCC1
> 100 µM: K-562 leukemia | SK-MEL-28 melanoma | OVCAR-4 ovarian | NCI-H226 lung | NCI-H460 lung | NCI-H23 lung | A549 NSCLC | UACC-62 melanoma | SF-539 CNS | DLD-1 colon | M19-MEL melanoma | U251 CNS | CCRF-CEM leukemia | COLO 205 colon | HT29 colon | SNB-78 CNS | SF-295 CNS | DMS 273 small cell lung | HOP-62 NSCLC | DMS 114 small cell lung | KM12 colon | TK-10 renal | XF 498 CNS | SK-OV-3 ovarian | CAKI-1 renal | EKVX NSCLC | KM20L2 colon | NCI-H522 lung | OVCAR-3 ovarian | LOX IMVI melanoma | SF-268 CNS | HCC-2998 colon | IGROV1 ovarian | SNB-75 CNS | 786-0 renal | MALME-3M melanoma | M14 melanoma | SW-620 colon | SN12C renal | OVCAR-8 ovarian | HOP-92 NSCLC | LXFL 529 NSCLC | OVCAR-5 ovarian | HCT-116 colon | UO-31 renal | SNB-19 CNS | SR leukemia | ACHN renal | RXF 393 renal | SK-MEL-5 melanoma

COc1ccc(CCC2NCCc3cc(OC)c(OC)cc32)cc1 (centres undefined)
> 100 µM: K-562 leukemia | SK-MEL-28 melanoma | OVCAR-4 ovarian | NCI-H460 lung | NCI-H23 lung | A549 NSCLC | SK-MEL-2 melanoma | SF-539 CNS | DLD-1 colon | U251 CNS | RPMI-8226 leukemia | CCRF-CEM leukemia | A498 renal | HT29 colon | SNB-78 CNS | SF-295 CNS | HOP-62 NSCLC | KM12 colon | TK-10 renal | XF 498 CNS | CAKI-1 renal | EKVX NSCLC | KM20L2 colon | NCI-H522 lung | HOP-18 NSCLC | OVCAR-3 ovarian | SF-268 CNS | HCC-2998 colon | HCT-15 colon | SNB-75 CNS | 786-0 renal | MALME-3M melanoma | M14 melanoma | SW-620 colon | SN12C renal | UACC-257 melanoma | OVCAR-8 ovarian | LXFL 529 NSCLC | OVCAR-5 ovarian | HCT-116 colon | UO-31 renal | SNB-19 CNS | ACHN renal | SK-MEL-5 melanoma | MOLT-4 leukemia
